Data reported in patent US20130337564A1, “Treatment of Pluripotent Cells” (Janssen Biotech, Inc., priority 2012, published 2013).
“And” between values parts separate entries of the source, which are not always exact repeats. Equal entries are not always repeated.

How the values were obtained:
Assay type in all cases: cell-based
[1] = system: cells expressing pluripotency markers derived from human embryonic stem cells; assay: MTS viability (toxicity) assay of cells expressing pluripotency markers; set-up: Raw data (duplicate), first replicate / Average: unit not given here; settings: for Raw data (duplicate), first replicate / Raw data (duplicate), second replicate: MTS viability assay raw reading; for Raw data (duplicate), first replicate: replicate 1; for Raw data (duplicate), second replicate: replicate 2; for Average: average of duplicate MTS raw readings
Summary of the method: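 Cells expressing pluripotency markers, derived from human embryonic stem cells, were plated at 20,000 cells per well in 96-well clear-bottom plates and cultured overnight. Test compounds were applied in assay medium on days 1 and 2, and compound-free medium on days 3 and 4. On day 4, MTS was added and optical density at 490 nm was read in duplicate.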

[2] = system: human embryonic stem cells (H9 line); assay: High content screening assay: cell number (proliferative response)
Description: (§1) Maintenance of human embryonic stem cells (H9 line) was conducted as described in Example 1. Colonies of cells were maintained in an undifferentiated, pluripotent state with passage on average every four days. Passage was performed by exposing cell cultures to a solution of collagenase (1 mg/ml; Sigma-Aldrich) for 10 to 30 minutes at 37° C. followed by gentle scraping with a pipette tip to recover cell clusters. Clusters were allowed to sediment by gravity, followed by washing to remove residual collagenase. Cell clusters were split at a 1:3 ratio for routine maintenance culture or a 1:1 ratio for immediate assay. The human embryonic stem cell lines used were maintained at passage numbers less than passage 50 and routinely evaluated for normal karyotypic phenotype and absence of mycoplasma contamination.
(§2) Cell clusters used in the assay were evenly resuspended in normal culture medium and plated onto MATRIGEL-coated 96-well Packard VIEWPLATES (PerkinElmer) in volumes of […]. MEF conditioned medium supplemented with 8 ng/ml bFGF was used for initial plating and recovery. Daily feeding was conducted by aspirating spent culture medium from each well and replacing with an equal volume of fresh medium. Plates were maintained at 37° C., 5% CO2 in a humidified box throughout the duration of assay.
(§3) Screening was conducted using test compounds from a proprietary library of small molecules selected for their ability to inhibit GSK-3B enzyme activity. Compounds from this library were made available as 1 mM stocks, in a 96-well plate format in 50 mM HEPES, 30% DMSO. Screening compounds were tested in triplicate or duplicate sets. Primary screening assays were initiated by aspirating culture medium from each well followed by three washes in PBS to remove residual growth factors and serum. Test volumes of 80 to 100 μl per well were added back containing DMEM:F12 base medium (Invitrogen) supplemented with 0.5% FCS (HyClone) and 100 ng/ml activin A (R&D Biosystems) plus 10 μM test compound. Positive control wells contained the same base medium, substituting 10-20 ng/ml Wnt3a (R&D Biosystems) for the test compound. Negative control wells contained base medium with 0.5% FCS and activin A alone (AA only) or alternatively, 0.5% FCS without activin A or Wnt3a (no treatment). Wells were aspirated and fed again with identical solutions on day 2 of assay. On days 3 and 4, all assay wells were aspirated and converted to DMEM:F12 supplemented with 2% FCS and 100 ng/ml activin A (without test compound or Wnt3a); parallel negative control wells were maintained in DMEM:F12 base medium with 2% FCS and activin A (AA only) or alternatively, 2% FCS without activin A (no treatment).
(§4) At the end of culture, cells in 96-well plates were fixed with 4% paraformaldehyde at room temperature for 20 minutes, washed three times with PBS, and then permeabilized with 0.5% Triton X-100 for 20 minutes at room temperature. Alternatively, cells were fixed with ice cold 70% ethanol overnight at −20° C., washed three times with PBS, and then permeabilized with Triton X-100 for 5 minutes at 4° C. After fixing and permeabilizing, cells were washed again three times with PBS and then blocked with 4% chicken serum (Invitrogen) in PBS for 30 minutes at room temperature. Primary antibodies (goat anti-human Sox17 and goat anti-human HNF-3beta; R&D Systems) were diluted 1:100 in 4% chicken serum and added to cells for one hour at room temperature. Alexa Fluor 488 conjugated secondary antibody (chicken anti-goat IgG; Molecular Probes) was diluted 1:200 in PBS and added after washing the cells three times with PBS. To counterstain nuclei, 5 mM Draq5 (Alexis Biochemicals) was added for five minutes at room temperature. Cells were washed once with PBS and left in […] PBS for imaging.
(§5) Cells were imaged using an IN Cell Analyzer 1000 (GE Healthcare) utilizing the 51008bs dichroic for cells stained with Draq5 and Alexa Fluor 488. […]

[3] = system: Sox17 expression in human embryonic stem cells (H9 line); assay: High content screening assay: Sox17 protein expression (differentiation); settings: for SOX17 Expression, Fold over Wnt 3a/AA control: 10 μM test compound with 100 ng/ml activin A on days 1-2, H9, total intensity by IN Cell Analyzer, strong and moderate hits; for SOX-17 Expression Fold over Wnt 3a/AA control: total intensity normalised to Wnt 3a/AA control
Description: as §1, §2, §3, §4, §5

[4] = system: HNF-3beta expression in human embryonic stem cells (H9 line); assay: High content screening assay: HNF-3beta protein expression (differentiation); settings: for HNF-3b Expression Fold over Wnt 3a/AA control: total intensity normalised to Wnt 3a/AA control
Description: as §1, §2, §3, §4, §5

[5] = viability of cells expressing pluripotency markers, relative to control
[6] = 10 μM test compound with 100 ng/ml activin A on days 1-2, H9, total cell number by IN Cell Analyzer, strong and moderate hits
[7] = cell number in the wells analysed for HNF-3b expression
[8] = cell number in the wells analysed for HNF-3b expression, normalised to Wnt 3a/AA control
[9] = cell number in the wells analysed for SOX-17 expression
[10] = cell number in the wells analysed for SOX-17 expression, normalised to Wnt 3a/AA control
[11] = 10 μM test compound with 100 ng/ml activin A on days 1-2, H9, total intensity by IN Cell Analyzer, strong and moderate hits

Row | Structure (SMILES) | viability at 10 µM ([1]; Homo sapiens, Embryonic stem cell, viability of cells expressing pluripotency markers, relative to control) [%] | fold induction at 10 µM ([2]; Homo sapiens, Embryonic stem cell, 10 μM test compound with 100 ng/ml activin A on days 1-2, H9, total cell number by IN Cell Analyzer, strong and moderate hits, read-out: Proliferative Response, Fold over Wnt 3a/AA control) | SOX17 Expression, Fold over Wnt 3a/AA control [3] | fold induction at 10 µM ([4]; Homo sapiens, Embryonic stem cell, 10 μM test compound with 100 ng/ml activin A on days 1-2, H9, total intensity by IN Cell Analyzer, strong and moderate hits, read-out: HNF3β Expression, Fold over Wnt 3a/AA control) | Raw data (duplicate), first replicate [1] | Raw data (duplicate), second replicate [1] | Average [1] | % Control [1, 5] [%] | Proliferative Response Fold over Wnt 3a/AA control [2, 6] | Proliferative Response Total cells [2, 7] | Proliferative Response Fold over Wnt 3a/AA control [2, 8] [fold] | Proliferative Response Total cells [2, 9] | Proliferative Response Fold over Wnt 3a/AA control [2, 10] [fold] | SOX-17 Expression Total Intensity [3] | SOX-17 Expression Fold over Wnt 3a/AA control [3] [fold] | HNF3β Expression, Fold over Wnt 3a/AA control [4, 11] | HNF-3b Expression Total Intensity [4] | HNF-3b Expression Fold over Wnt 3a/AA control [4] [fold]
1 | O=C1NC(=O)C(c2cn(-c3cccnc3)c3ccccc23)=C1c1n[nH]c2ccccc12 [Compound 14] | 95.1 | 1.05 | 1.0080 Fold over Wnt 3a/AA control | 0.869 |  |  |  |  |  |  |  |  |  |  |  |  |  | 
2 | CCN1CCOCCn2cc(c3ccccc32)C2=C(C(=O)NC2=O)c2cn(c3ccccc23)CCOCC1 [Compound 15, 11-Ethyl-6,7,10,11,12,13,15,16-octahydro-9H,23H-5,26:17,22-di(metheno)dibenzo[k,q]pyrrolo[3,4-n][1,7,4,10,19]dioxatriazacyclohenicosine-23,25(24H)-dione] |  |  | 1.2678 Fold over Wnt 3a/AA control |  | 0.162 | 0.134 | 0.148 | 4.5 | 1.3217 Fold over Wnt 3a/AA control and 1.0269 Fold over Wnt 3a/AA control | 5186 | 1.027 | 10533 | 1.322 | 475250000 | 1.2678 | 0.8807 Fold over Wnt 3a/AA control | 404710000 | 0.8807
3 | O=C1NC(=O)C2=C1c1cn(c3ncccc13)CCOCCOCCOCCn1cc2c2cccnc21 [Compound 167] |  |  | 0.9014 Fold over Wnt 3a/AA control |  | 0.804 | 0.903 | 0.853 | 109.0 | 0.9928 Fold over Wnt 3a/AA control | 5013 | 0.9928 | 6217 | 0.7801 | 337920000 | 0.9014 | 0.9515 Fold over Wnt 3a/AA control | 437235000 | 0.9515
